Measurements as given in ChEMBL document CHEMBL3734723, “Synthesis and anticancer activity of 6-heteroarylcoumarins” (2015).

Assays:
Format in all cases: functional
[1] = Growth inhibition of human Caki1 cells incubated for 48 hrs by sulforhodamine B assay; conditions: CAKI-1, 48 h
EKVX = experiment: Growth inhibition of human EKVX cells incubated for 48 hrs by sulforhodamine B assay
[2] = Cytotoxicity against human OVCAR8 cells assessed as cell growth at 10 uM incubated for 48 hrs by sulforhodamine B assay; conditions: OVCAR-8, 48 h, read-out: Activity
[3] = Cytotoxicity against human DU145 cells assessed as cell growth at 10 uM incubated for 48 hrs by sulforhodamine B assay; conditions: DU-145, 48 h, read-out: Activity
[4] = Growth inhibition of human SF295 cells incubated for 48 hrs by sulforhodamine B assay; conditions: SF-295, 48 h
NCI-H226 = experiment: Cytotoxicity against human NCI-H226 cells assessed as cell growth at 10 uM incubated for 48 hrs by sulforhodamine B assay; conditions: NCI-H226, 48 h, read-out: Activity
MDA-MB-435 = experiment: Growth inhibition of human MDA-MB-435 cells incubated for 48 hrs by sulforhodamine B assay; conditions: MDA-MB-435, 48 h
NCI-H322M = experiment: Cytotoxicity against human NCI-H322M cells assessed as cell growth at 10 uM incubated for 48 hrs by sulforhodamine B assay; conditions: read-out: Activity
[5] = Cytotoxicity against human UACC257 cells assessed as cell growth at 10 uM incubated for 48 hrs by sulforhodamine B assay; conditions: UACC-257, 48 h, read-out: Activity
[6] = Cytotoxicity against human HCC2998 cells assessed as cell growth at 10 uM incubated for 48 hrs by sulforhodamine B assay; conditions: HCC 2998, 48 h, read-out: Activity
[7] = Cytotoxicity against human SKOV3 cells assessed as cell growth at 10 uM incubated for 48 hrs by sulforhodamine B assay; conditions: SK-OV-3, 48 h, read-out: Activity
[8] = Cytotoxicity against human BT549 cells assessed as cell growth at 10 uM incubated for 48 hrs by sulforhodamine B assay; conditions: BT-549, 48 h, read-out: Activity
[9] = Growth inhibition of human HL-60(TB) cells incubated for 48 hrs by sulforhodamine B assay; conditions: HL-60, 48 h
K562 = experiment: Growth inhibition of human K562 cells incubated for 48 hrs by sulforhodamine B assay; conditions: K562, 48 h
[10] = Growth inhibition of human OVCAR4 cells incubated for 48 hrs by sulforhodamine B assay; conditions: OVCAR-4, 48 h
SK-MEL-2 = experiment: Cytotoxicity against human SK-MEL-2 cells assessed as cell growth at 10 uM incubated for 48 hrs by sulforhodamine B assay; conditions: SK-MEL-2, 48 h, read-out: Activity
[11] = Growth inhibition of human MOLT4 cells incubated for 48 hrs by sulforhodamine B assay; conditions: MOLT-4, 48 h
[12] = Cytotoxicity against human OVCAR3 cells assessed as cell growth at 10 uM incubated for 48 hrs by sulforhodamine B assay; conditions: OVCAR-3, 48 h, read-out: Activity
[13] = read-out: LC50 (the source's name)

For Cc1cc(=O)oc2c(C)c(O)c(-c3ccnc(N)n3)cc12, the GI50 [1] was 3.95 µM, the TGI [1] was over 100 µM and the CC50 [1, 13] was over 100 µM. The GI50 (EKVX) was 48.4 µM, the TGI (EKVX) was over 100 µM and the CC50 (EKVX; [13]) was over 100 µM. For the same molecule, the growth at 10 µM [2] was 48%, the growth at 10 µM [3] was 66.6% and the GI50 [4] was 8.74 µM. The TGI [4] was over 100 µM, the CC50 [4, 13] was over 100 µM and the growth at 10 µM (NCI-H226) was 52.3%. It also gave a GI50 (MDA-MB-435) of over 100 µM, a TGI (MDA-MB-435) of over 100 µM and a CC50 (MDA-MB-435; [13]) of over 100 µM.
With Cc1cc(=O)oc2c(C)c(O)c(-c3cc4ccc(F)cc4[nH]3)cc12 the growth at 10 µM (NCI-H322M) was 53.4%, the growth at 10 µM [5] was 30.4% and the growth at 10 µM [6] was 24.9%. For the same molecule, the growth at 10 µM [7] was 47.1%, the growth at 10 µM [8] was 47.6% and the GI50 [9] was 2.96 µM. For the same molecule, the TGI [9] was 9.69 µM, the CC50 [9, 13] was over 100 µM and the GI50 (K562) was 2.68 µM. It also gave a TGI (K562) of 23 µM, a CC50 (K562; [13]) of over 100 µM and a GI50 [10] of 3.99 µM. The TGI [10] was 32.9 µM, the CC50 [10, 13] was over 100 µM and the growth at 10 µM (SK-MEL-2) was 19.5%. For the same molecule, the GI50 [11] was 3.27 µM, the TGI [11] was 15 µM and the CC50 [11, 13] was over 100 µM. For the same molecule, the growth at 10 µM [12] was 16.5%.
